Measurements reported in ChEMBL document CHEMBL1122789, “Synthesis and biological activity of structural analogues of the anticancer benzophenanthridine alkaloid nitidine chloride” (1984).

Legend:
B16 [1] = experiment: Evaluated for anticancer activity in survival tumor system B16 melanocarcinoma at dose 100 mg/kg; type: functional, Mus musculus
B16 [2] = experiment: Evaluated for anticancer activity in survival tumor system B16 melanocarcinoma at dose 25 mg/kg; type: functional, Mus musculus
B16 [3] = experiment: Evaluated for anticancer activity in survival tumor system B16 melanocarcinoma at dose 50 mg/kg; type: functional, Mus musculus
B16 [4] = experiment: Evaluated for anticancer activity in survival tumor system B16 melanocarcinoma at a dose of 12.5 mg/kg, value was reported as weight difference; type: functional, Mus musculus
B16 [5] = experiment: Evaluated for anticancer activity in survival tumor system B16 melanocarcinoma at a dose of 100 mg/kg; Number of Tested survived/number of control survived (7/10); type: functional, Mus musculus
B16 [6] = experiment: Evaluated for anticancer activity in survival tumor system B16 melanocarcinoma at a dose of 25 mg/kg; Number of Tested survived/number of control survived (10/10); type: functional, Mus musculus
B16 [7] = experiment: Evaluated for anticancer activity in survival tumor system B16 melanocarcinoma at a dose of 50 mg/kg, value was reported as weight difference; type: functional, Mus musculus
B16 [8] = experiment: Evaluated for anticancer activity in survival tumor system B16 melanocarcinoma at a dose of 200 mg/kg; Number of Tested survived/number of control survived (4/10); type: functional, Mus musculus
B16 [9] = experiment: Evaluated for anticancer activity in survival tumor system B16 melanocarcinoma at a dose of 50 mg/kg; number of Tested survived/number of control survived; type: functional, Mus musculus
B16 [10] = experiment: Evaluated for anticancer activity in survival tumor system B16 melanocarcinoma at a dose of 6.25 mg/kg; Number of Tested survived/number of control survived (10/10); type: functional, Mus musculus
[11] = Evaluated for anticancer activity in tumor inhibition system CD8F1 mammary tumors at a dose of 125 mg/kg; Number of Tested survived/number of control survived (10/10); type: functional, Mus musculus
[12] = Evaluated for anticancer activity in tumor inhibition system CD8F1 mammary tumor at dose 62 mg/kg; type: functional, Mus musculus
KB = experiment: Evaluated in vitro for cytotoxicity against KB cell culture system; type: functional; conditions: Homo sapiens, read-out: ED50 (the source's name)
L1210 [13] = experiment: Evaluated for anticancer activity in survival tumor system L1210 lymphoid leukemia at a dose of 12.5 mg/kg, value was reported as weight difference; type: functional, Mus musculus
L1210 [14] = experiment: Evaluated for anticancer activity in survival tumor system L1210 lymphoid leukemia at a dose of 25 mg/kg, value was reported as weight difference; type: functional, Mus musculus
L1210 [15] = experiment: Evaluated for anticancer activity in survival tumor system L1210 lymphoid leukemia at a dose of 3.125 mg/kg, value was reported as weight difference; type: functional, Mus musculus
L1210 [16] = experiment: Evaluated for anticancer activity in survival tumor system L1210 lymphoid leukemia at a dose of 50 mg/kg, value was reported as weight difference; type: functional, Mus musculus
L1210 [17] = experiment: Evaluated for anticancer activity in survival tumor system L1210 lymphoid leukemia at dose 100 mg/kg; type: functional, Mus musculus
L1210 [18] = experiment: Evaluated for anticancer activity in survival tumor system L1210 lymphoid leukemia at dose 12.5 mg/kg; type: functional, Mus musculus
L1210 [19] = experiment: Evaluated for anticancer activity in survival tumor system L1210 lymphoid leukemia at a dose of 100 mg/kg; Number of Tested survived/number of control survived (6/6); type: functional, Mus musculus
L1210 [20] = experiment: Evaluated for anticancer activity in survival tumor system L1210 lymphoid leukemia at a dose of 50 mg/kg; Number of Tested survived/number of control survived (6/6); type: functional, Mus musculus
[21] = system: Lewis lung carcinoma cell line; experiment: Evaluated for anticancer activity in survival tumor system Lewis lung (LL) carcinoma at dose 100 mg/kg; type: functional, Mus musculus
[22] = system: Lewis lung carcinoma cell line; experiment: Evaluated for anticancer activity in survival tumor system Lewis lung (LL) carcinoma at dose 25 mg/kg; type: functional, Mus musculus
L1210 [23] = experiment: Evaluated for anticancer activity in survival tumor system L1210 lymphoid leukemia at dose 3.12 mg/kg; type: functional, Mus musculus
L1210 [24] = experiment: Evaluated for anticancer activity in survival tumor system L1210 lymphoid leukemia at dose 6.25 mg/kg; type: functional, Mus musculus
MX1 [25] = experiment: Evaluated for anticancer activity in tumor inhibition system MX-1 breast xenograph at a dose of 300 mg/kg; Number of Tested survived/number of control survived (1/6); type: functional, Homo sapiens
[26] = system: Lewis lung carcinoma cell line; experiment: Evaluated for anticancer activity in survival tumor system Lewis lung (LL) carcinoma at a dose of 12.5 mg/kg; Number of Tested survived/number of control survived (10/10); type: functional, Mus musculus
[27] = system: Lewis lung carcinoma cell line; experiment: Evaluated for anticancer activity in survival tumor system Lewis lung (LL) carcinoma at a dose of 25 mg/kg; number of Tested survived/number of control survived; type: functional, Mus musculus
MX1 [28] = experiment: Evaluated for anticancer activity in tumor inhibition system MX-1 breast xenograph at a dose of 75 mg/kg; Number of Tested survived/number of control survived (4/6); type: functional, Homo sapiens
P388 [29] = experiment: Evaluated for anticancer activity in survival tumor system P388 lymphocytic leukemia at dose 12.5 mg/kg; type: functional, Mus musculus
P388 [30] = experiment: Evaluated for anticancer activity in survival tumor system P388 lymphocytic leukemia at a dose of 100 mg/kg; Number of Tested survived/number of control survived (5/6); type: functional, Mus musculus
P388 [31] = experiment: Evaluated for anticancer activity in survival tumor system P388 lymphocytic leukemia at a dose of 12.5 mg/kg;Number of Tested survived/number of control survived (5/6); type: functional, Mus musculus
P388 [32] = experiment: Evaluated for anticancer activity in survival tumor system P388 lymphocytic leukemia at a dose of 25 mg/kg;Number of Tested survived/number of control survived (5/6); type: functional, Mus musculus
P388 [33] = experiment: Evaluated for anticancer activity in survival tumor system P388 lymphocytic leukemia at dose 25 mg/kg; type: functional, Mus musculus
P388 [34] = experiment: Evaluated for anticancer activity in survival tumor system P388 lymphocytic leukemia at a dose of 100 mg/kg, value was reported as weight difference; type: functional, Mus musculus
P388 [35] = experiment: Evaluated for anticancer activity in survival tumor system P388 lymphocytic leukemia at a dose of 12.5 mg/kg, value was reported as weight difference; type: functional, Mus musculus
[36] = Evaluated for anticancer activity in tumor inhibition system colon 38 at a dose of 200 mg/kg, value was reported as weight difference; type: functional, Mus musculus
[37] = Evaluated for anticancer activity in tumor inhibition system colon 38 at a dose of 400 mg/kg, value was reported as weight difference; type: functional, Mus musculus
[38] = Evaluated for anticancer activity in tumor inhibition system colon 38 at a dose of 50 mg/kg, value was reported as weight difference; type: functional, Mus musculus
[39] = Evaluated for anticancer activity in tumor inhibition system colon 38 tumors at a dose of 50 mg/kg; Number of Tested survived/number of control survived (10/10); type: functional, Mus musculus
[40] = Evaluated for anticancer activity in tumor inhibition system colon 38 tumor at dose 200 mg/kg; type: functional, Mus musculus
[41] = Evaluated for anticancer activity in tumor inhibition system colon 38 at a dose of 100 mg/kg, value was reported as weight difference; type: functional, Mus musculus
[42] = system: Lewis lung carcinoma cell line; experiment: Evaluated for anticancer activity in survival tumor system Lewis lung (LL) carcinoma at dose 12.5 mg/kg; type: functional, Mus musculus
MX1 [43] = experiment: Evaluated for anticancer activity in tumor inhibition system MX-1 breast xenograph at a dose of 150 mg/kg; Number of Tested survived/number of control survived (5/6); conditions: Homo sapiens

COc1cc2c[n+](C)c3c(c2cc1OC)Cc1cc2c(cc1-3)OCO2.[Cl-]
T/C (B16 [1]): 120%
T/C (B16 [2]): 139%
T/C (B16 [3]): 147%
Weight change (B16 [4]): -1
Survival (B16 [5]): 7
Survival (B16 [6]): 10
Weight change (B16 [7]): -4.9
Survival (B16 [8]): 4
Survival (B16 [9]): 10
Survival (B16 [10]): 10
Survival [11]: 10
T/C [12]: 92%
EC50 (KB): 0.038 µg/mL
Weight change (L1210 [13]): -2.6
Weight change (L1210 [14]): -5.4
Weight change (L1210 [15]): -1.9
Weight change (L1210 [16]): -5.8
T/C (L1210 [17]): 95%
T/C (L1210 [18]): 156%
Survival (L1210 [19]): 6
Survival (L1210 [20]): 6
T/C [21]: 51%
T/C [22]: 114%
T/C (L1210 [23]): 129%
T/C (L1210 [24]): 154%
Survival (MX1 [25]): 1
Survival [26]: 10
Survival [27]: 10
Survival (MX1 [28]): 4
T/C (P388 [29]): 134%
Survival (P388 [30]): 5
Survival (P388 [31]): 5
Survival (P388 [32]): 5
T/C (P388 [33]): 151%
Weight change (P388 [34]): -5.8
Weight change (P388 [35]): -1.4
Weight change [36]: -4.3
Weight change [37]: -6.2
Weight change [38]: -0.8
Survival [39]: 10
T/C [40]: 97%
Weight change [41]: -1.9
T/C [42]: 97%
Survival (MX1 [43]): 5
